Experimental findings from the NIST ThermoML archive (doi:10.1016/j.jct.2017.07.012) are described below.

Molecules are shown by their SMILES. ± gives the expanded uncertainty stated by the source.

The first data set is described as follows: activity coefficient (dimensionless); of the first substance listed, at infinite dilution; xn = mol fraction of the nth substance listed. Particulars: 333.15 K; 101.33 kPa; Liquid; Chromatography; x1 = 0.
As for `Cc1cccc(C)c1` [1,3-dimethylbenzene] + CCCCn1cc[n+](C)c1.[O-][Cl+3]([O-])([O-])[O-], the activity coefficient was found to be 5.08 ± 0.53.
On the same count and under the same terms, to `CCCCO` [butan-1-ol] + CCCCn1cc[n+](C)c1.[O-][Cl+3]([O-])([O-])[O-] belongs 2.73 ± 0.29.
Turning to `CCCCCCCC` [octane] + CCCCn1cc[n+](C)c1.[O-][Cl+3]([O-])([O-])[O-], the activity coefficient is 119 ± 13.
Same read-out and setting: next, `CCCO` [propan-1-ol] + CCCCn1cc[n+](C)c1.[O-][Cl+3]([O-])([O-])[O-]: 1.99 ± 0.21; `CCCCCCC` [heptane] + CCCCn1cc[n+](C)c1.[O-][Cl+3]([O-])([O-])[O-]: 108 ± 11.
With `C1CCOC1` [tetrahydrofuran] + CCCCn1cc[n+](C)c1.[O-][Cl+3]([O-])([O-])[O-], the activity coefficient turned out to be 1.94 ± 0.2.
On the same count and under the same terms, next, `CCC(C)O` (stereo not given) [butan-2-ol] + CCCCn1cc[n+](C)c1.[O-][Cl+3]([O-])([O-])[O-]: 2.61 ± 0.27.
In the case of `CC(C)CC(C)(C)C` [2,2,4-trimethylpentane] + CCCCn1cc[n+](C)c1.[O-][Cl+3]([O-])([O-])[O-], the activity coefficient was 119 ± 12.
For `c1ccccc1` [benzene] + CCCCn1cc[n+](C)c1.[O-][Cl+3]([O-])([O-])[O-], the activity coefficient came to 2 ± 0.21.
Still for that read-out and setting: next, `CO` [methanol] + CCCCn1cc[n+](C)c1.[O-][Cl+3]([O-])([O-])[O-]: 1.02 ± 0.1.
Regarding `CCCCCC` [hexane] + CCCCn1cc[n+](C)c1.[O-][Cl+3]([O-])([O-])[O-], the activity coefficient turned out to be 107 ± 11.
For the compound `CCOC(C)=O` [ethyl acetate] + CCCCn1cc[n+](C)c1.[O-][Cl+3]([O-])([O-])[O-], the activity coefficient came to 2.54 ± 0.27.
For the compound `CCO` [ethanol] + CCCCn1cc[n+](C)c1.[O-][Cl+3]([O-])([O-])[O-], the activity coefficient was 1.5 ± 0.16.
The same measure, in the same setting: next, `CC1CCCCC1` [methylcyclohexane] + CCCCn1cc[n+](C)c1.[O-][Cl+3]([O-])([O-])[O-]: 47.3 ± 5; `CC(C)CCO` [3-methylbutan-1-ol] + CCCCn1cc[n+](C)c1.[O-][Cl+3]([O-])([O-])[O-]: 3.49 ± 0.37.
Turning to `CC#N` [acetonitrile] + CCCCn1cc[n+](C)c1.[O-][Cl+3]([O-])([O-])[O-], the activity coefficient worked out at 0.65 ± 0.07.
`C1CCCCC1` [cyclohexane] + CCCCn1cc[n+](C)c1.[O-][Cl+3]([O-])([O-])[O-]: the activity coefficient was 35.4 ± 3.7.

Still in this data set, the particulars now being: 343.15 K; 101.33 kPa; Liquid; Chromatography; x1 = 0.
For the compound `CC(C)CO` [2-methyl-1-propanol] + CCCCn1cc[n+](C)c1.[O-][Cl+3]([O-])([O-])[O-], the activity coefficient was 2.48 ± 0.26.
As for `Cc1ccccc1` [toluene] + CCCCn1cc[n+](C)c1.[O-][Cl+3]([O-])([O-])[O-], the activity coefficient amounted to 3.29 ± 0.35.
Take `CCCCCO` [pentan-1-ol] + CCCCn1cc[n+](C)c1.[O-][Cl+3]([O-])([O-])[O-]: the activity coefficient amounted to 3.55 ± 0.37.
Consider `C1=CCCCC1` [cyclohexene] + CCCCn1cc[n+](C)c1.[O-][Cl+3]([O-])([O-])[O-], for which the activity coefficient was 14.4 ± 1.5.
For the compound `CCc1ccccc1` [ethylbenzene] + CCCCn1cc[n+](C)c1.[O-][Cl+3]([O-])([O-])[O-], the activity coefficient came out at 5.29 ± 0.56.
On the same count and under the same terms, to `ClC(Cl)Cl` [trichloromethane] + CCCCn1cc[n+](C)c1.[O-][Cl+3]([O-])([O-])[O-] belongs 1.1 ± 0.11; to `CC(C)=O` [acetone] + CCCCn1cc[n+](C)c1.[O-][Cl+3]([O-])([O-])[O-], 1.05 ± 0.11.
Consider `CCCCCCCCC` [nonane] + CCCCn1cc[n+](C)c1.[O-][Cl+3]([O-])([O-])[O-], for which the activity coefficient was 135 ± 14.
With `CCCCCCCCCC` [decane] + CCCCn1cc[n+](C)c1.[O-][Cl+3]([O-])([O-])[O-], the activity coefficient was 200 ± 21.
For `O` [water] + CCCCn1cc[n+](C)c1.[O-][Cl+3]([O-])([O-])[O-], the activity coefficient was found to be 1.01 ± 0.1.
Still for that read-out and setting: next, `ClC(Cl)(Cl)Cl` [tetrachloromethane] + CCCCn1cc[n+](C)c1.[O-][Cl+3]([O-])([O-])[O-]: 4.6 ± 0.48.
The same measure, in the same setting: next, `Cc1ccc(C)cc1` [1,4-dimethylbenzene] + CCCCn1cc[n+](C)c1.[O-][Cl+3]([O-])([O-])[O-]: 5.13 ± 0.54; `Cc1cccc(C)c1` [1,3-dimethylbenzene] + CCCCn1cc[n+](C)c1.[O-][Cl+3]([O-])([O-])[O-]: 5.28 ± 0.55; `CCCCO` [butan-1-ol] + CCCCn1cc[n+](C)c1.[O-][Cl+3]([O-])([O-])[O-]: 2.49 ± 0.26.
Consider `CCCCCCCC` [octane] + CCCCn1cc[n+](C)c1.[O-][Cl+3]([O-])([O-])[O-], for which the activity coefficient was determined as 122 ± 13.
For `CCCO` [propan-1-ol] + CCCCn1cc[n+](C)c1.[O-][Cl+3]([O-])([O-])[O-], the activity coefficient is 1.87 ± 0.2.
Still for that read-out and setting: to `CCCCCCC` [heptane] + CCCCn1cc[n+](C)c1.[O-][Cl+3]([O-])([O-])[O-] belongs 115 ± 12.
Still for that read-out and setting: next, `C1CCOC1` [tetrahydrofuran] + CCCCn1cc[n+](C)c1.[O-][Cl+3]([O-])([O-])[O-]: 1.94 ± 0.2.
With `CCC(C)O` (stereo not given) [butan-2-ol] + CCCCn1cc[n+](C)c1.[O-][Cl+3]([O-])([O-])[O-], the activity coefficient stood at 2.47 ± 0.26.
As for `CC(C)CC(C)(C)C` [2,2,4-trimethylpentane] + CCCCn1cc[n+](C)c1.[O-][Cl+3]([O-])([O-])[O-], the activity coefficient worked out at 122 ± 13.
The same measure, in the same setting: to `c1ccccc1` [benzene] + CCCCn1cc[n+](C)c1.[O-][Cl+3]([O-])([O-])[O-] belongs 2.08 ± 0.22; to `CO` [methanol] + CCCCn1cc[n+](C)c1.[O-][Cl+3]([O-])([O-])[O-], 1.01 ± 0.1; to `CCCCCC` [hexane] + CCCCn1cc[n+](C)c1.[O-][Cl+3]([O-])([O-])[O-], 112 ± 12.
Still for that read-out and setting: next, `CCOC(C)=O` [ethyl acetate] + CCCCn1cc[n+](C)c1.[O-][Cl+3]([O-])([O-])[O-]: 2.69 ± 0.28; `CCO` [ethanol] + CCCCn1cc[n+](C)c1.[O-][Cl+3]([O-])([O-])[O-]: 1.45 ± 0.15; `CC1CCCCC1` [methylcyclohexane] + CCCCn1cc[n+](C)c1.[O-][Cl+3]([O-])([O-])[O-]: 47.3 ± 5.
The same measure, in the same setting: to `CC(C)CCO` [3-methylbutan-1-ol] + CCCCn1cc[n+](C)c1.[O-][Cl+3]([O-])([O-])[O-] belongs 3.21 ± 0.34; to `CC#N` [acetonitrile] + CCCCn1cc[n+](C)c1.[O-][Cl+3]([O-])([O-])[O-], 0.67 ± 0.07.
As to `C1CCCCC1` [cyclohexane] + CCCCn1cc[n+](C)c1.[O-][Cl+3]([O-])([O-])[O-], the activity coefficient was found to be 36.2 ± 3.8.

Still in this data set, the particulars now being: 353.15 K; 101.33 kPa; Liquid; Chromatography; x1 = 0.
With `CC(C)CO` [2-methyl-1-propanol] + CCCCn1cc[n+](C)c1.[O-][Cl+3]([O-])([O-])[O-], the activity coefficient came out at 2.32 ± 0.24.
On the same count and under the same terms, next, `Cc1ccccc1` [toluene] + CCCCn1cc[n+](C)c1.[O-][Cl+3]([O-])([O-])[O-]: 3.38 ± 0.36; `CCCCCO` [pentan-1-ol] + CCCCn1cc[n+](C)c1.[O-][Cl+3]([O-])([O-])[O-]: 3.23 ± 0.34.
Still for that read-out and setting: to `C1=CCCCC1` [cyclohexene] + CCCCn1cc[n+](C)c1.[O-][Cl+3]([O-])([O-])[O-] belongs 14.2 ± 1.5; to `CCc1ccccc1` [ethylbenzene] + CCCCn1cc[n+](C)c1.[O-][Cl+3]([O-])([O-])[O-], 5.35 ± 0.56; to `ClC(Cl)Cl` [trichloromethane] + CCCCn1cc[n+](C)c1.[O-][Cl+3]([O-])([O-])[O-], 1.16 ± 0.12.
`CC(C)=O` [acetone] + CCCCn1cc[n+](C)c1.[O-][Cl+3]([O-])([O-])[O-]: the activity coefficient worked out at 1.08 ± 0.11.
`CCCCCCCCC` [nonane] + CCCCn1cc[n+](C)c1.[O-][Cl+3]([O-])([O-])[O-]: the activity coefficient worked out at 133 ± 14.
On the same count and under the same terms, next, `CCCCCCCCCC` [decane] + CCCCn1cc[n+](C)c1.[O-][Cl+3]([O-])([O-])[O-]: 192 ± 20; `O` [water] + CCCCn1cc[n+](C)c1.[O-][Cl+3]([O-])([O-])[O-]: 1 ± 0.1.
Same read-out and setting: to `ClC(Cl)(Cl)Cl` [tetrachloromethane] + CCCCn1cc[n+](C)c1.[O-][Cl+3]([O-])([O-])[O-] belongs 4.67 ± 0.49; to `Cc1ccc(C)cc1` [1,4-dimethylbenzene] + CCCCn1cc[n+](C)c1.[O-][Cl+3]([O-])([O-])[O-], 5.21 ± 0.55; to `Cc1cccc(C)c1` [1,3-dimethylbenzene] + CCCCn1cc[n+](C)c1.[O-][Cl+3]([O-])([O-])[O-], 5.36 ± 0.56.
On the same count and under the same terms, to `CCCCO` [butan-1-ol] + CCCCn1cc[n+](C)c1.[O-][Cl+3]([O-])([O-])[O-] belongs 2.39 ± 0.25; to `CCCCCCCC` [octane] + CCCCn1cc[n+](C)c1.[O-][Cl+3]([O-])([O-])[O-], 127 ± 13.
`CCCO` [propan-1-ol] + CCCCn1cc[n+](C)c1.[O-][Cl+3]([O-])([O-])[O-]: the activity coefficient was 1.82 ± 0.19.
Still for that read-out and setting: next, `CCCCCCC` [heptane] + CCCCn1cc[n+](C)c1.[O-][Cl+3]([O-])([O-])[O-]: 121 ± 13; `C1CCOC1` [tetrahydrofuran] + CCCCn1cc[n+](C)c1.[O-][Cl+3]([O-])([O-])[O-]: 2.06 ± 0.22; `CCC(C)O` (stereo not given) [butan-2-ol] + CCCCn1cc[n+](C)c1.[O-][Cl+3]([O-])([O-])[O-]: 2.37 ± 0.25.
In the case of `CC(C)CC(C)(C)C` [2,2,4-trimethylpentane] + CCCCn1cc[n+](C)c1.[O-][Cl+3]([O-])([O-])[O-], the activity coefficient amounted to 125 ± 13.
Same read-out and setting: next, `c1ccccc1` [benzene] + CCCCn1cc[n+](C)c1.[O-][Cl+3]([O-])([O-])[O-]: 2.17 ± 0.23.
The same measure, in the same setting: to `CO` [methanol] + CCCCn1cc[n+](C)c1.[O-][Cl+3]([O-])([O-])[O-] belongs 1 ± 0.1; to `CCCCCC` [hexane] + CCCCn1cc[n+](C)c1.[O-][Cl+3]([O-])([O-])[O-], 118 ± 12.
Still for that read-out and setting: next, `CCOC(C)=O` [ethyl acetate] + CCCCn1cc[n+](C)c1.[O-][Cl+3]([O-])([O-])[O-]: 2.78 ± 0.29.
Turning to `CCO` [ethanol] + CCCCn1cc[n+](C)c1.[O-][Cl+3]([O-])([O-])[O-], the activity coefficient turned out to be 1.44 ± 0.15.
The same measure, in the same setting: to `CC1CCCCC1` [methylcyclohexane] + CCCCn1cc[n+](C)c1.[O-][Cl+3]([O-])([O-])[O-] belongs 47.8 ± 5.
On to `CC(C)CCO` [3-methylbutan-1-ol] + CCCCn1cc[n+](C)c1.[O-][Cl+3]([O-])([O-])[O-], for which the activity coefficient came to 2.97 ± 0.31.
Consider `CC#N` [acetonitrile] + CCCCn1cc[n+](C)c1.[O-][Cl+3]([O-])([O-])[O-], for which the activity coefficient was 0.69 ± 0.07.
The same measure, in the same setting: to `C1CCCCC1` [cyclohexane] + CCCCn1cc[n+](C)c1.[O-][Cl+3]([O-])([O-])[O-] belongs 37.5 ± 4.
